Holding throughout (assay): NCI-60 cell line screen, 48 h
Experiment [1] has as its system HCC 2998.
Experiment [2] relates to NCI-H522.
The subject of experiment [3] is HT-29.
In experiment [4] the test system is NCI-H23.
For experiment [5], the system named is 786-0.
Experiment [6] deals with T47D.
Experiment [7] concerns SF-539.
Experiment [8] has as its system K562.
Experiment [9] relates to EKVX.
Experiment [10] concerns OVCAR-4.
Experiment [11] deals with MCF7.
The test system of experiment [12] is SN12C.
For experiment [13], the system named is SK-MEL-2.
The subject of experiment [14] is UACC-62.
For experiment [15], the system named is Hs-578T.
For experiment [16], the system named is COLO 205.
For experiment [17], the system named is SF-268.
Experiment [18] deals with RPMI-8226.
The test system of experiment [19] is SNB-19.
For experiment [20], the system named is MOLT-4.

From ChEMBL document CHEMBL1201862, “PubChem BioAssay data set” (2004) come the findings set out here.

The structures appear in SMILES notation.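 Where inhibition never reached the appropriate level, the endpoint shown equals the highest concentration tested. Otherwise, values were interpolated linearly from a five-concentration, 48-hour dose response in 96-well plates. The concentration for 50% growth inhibition is given as GI50.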 Calls of active or inactive are those of the source. Cut-off read from the data, not from the text of the source: active = GI50 up to about 1.1 µM and inactive = higher.

Take `[N-]=[N+]=NCC(=O)c1cnc(O)nc1O`: the GI50 in experiment [1], in experiment [2], in [3], in experiment [4], in experiment [5] and in experiment [6] was > 100 µM (inactive) throughout. Further, the GI50 in [7], in experiment [8], in experiment [9], in [10], in experiment [11] and in experiment [12] was > 100 µM (inactive) each time. For the same compound, the GI50 in [13], in [14], in experiment [15], in [16], in experiment [17] and in experiment [18] was > 100 µM (inactive) each time. In addition, in experiment [19], the GI50 was > 100 µM (inactive).

`CC(C)(C)c1cc(C(=O)/C=C/c2cc[nH]n2)cc(C(C)(C)C)c1O`: the GI50 in experiment [1] is 1.88 µM (inactive); in [2], 1.43 µM (inactive); in [3] it was 2.61 µM (inactive); in experiment [4], 2.78 µM (inactive); in experiment [20] it was 2.61 µM (inactive); in experiment [5] it was 1.58 µM (inactive). Further, the GI50 was 1.11 µM (active) in experiment [6]; 3.85 µM (inactive) in [7]; 3.08 µM (inactive) in [8]; 13.4 µM (inactive) in experiment [9]; 6.4 µM (inactive) in experiment [10]; 1.36 µM (inactive) in experiment [11]. Further, the GI50 in experiment [12] is 1.85 µM (inactive); in experiment [13], 1.78 µM (inactive); in experiment [14] it was 3.26 µM (inactive); in experiment [15], 2.57 µM (inactive); in experiment [16], 2.07 µM (inactive); in experiment [17], 2.4 µM (inactive). For the same compound, the GI50 in experiment [18] was 1.06 µM (active); in [19], 3.87 µM (inactive).

With `CC1=Cc2ccc(C)cc2C(=O)C1=O`, the GI50 in [1] was 14.9 µM (inactive); in experiment [2], 1.64 µM (inactive); in experiment [3], 20.1 µM (inactive); in [4] it was 17.3 µM (inactive); in [20] it was 0.605 µM (active); in experiment [5], 1.85 µM (inactive). In addition, the GI50 was 1.82 µM (inactive) in experiment [6]; 6.28 µM (inactive) in experiment [7]; 2.07 µM (inactive) in experiment [8]; 18.3 µM (inactive) in [9]; 4.94 µM (inactive) in experiment [10]; 6.97 µM (inactive) in experiment [11]. Moreover, the GI50 in experiment [12] is 5.04 µM (inactive); in experiment [13], 19.9 µM (inactive); in [14], 20.2 µM (inactive); in [15] it was 13.9 µM (inactive); in experiment [16], 6.07 µM (inactive); in [17], 8.67 µM (inactive). The GI50 was 2.16 µM (inactive) in [18] and 22.2 µM (inactive) in [19].

Regarding `O=C(O)COc1c(Cl)cc(Cl)c(C(c2c(Cl)cc(Cl)c(OCC(=O)O)c2Cl)C(Cl)(Cl)Cl)c1Cl`, the GI50 in [1] was 12.1 µM (inactive); in [2], 33.8 µM (inactive); in [3], 29 µM (inactive); in experiment [4] it was 25.9 µM (inactive); in experiment [20] it was 35.3 µM (inactive); in experiment [5], 37.2 µM (inactive). For the same compound, the GI50 was 30.3 µM (inactive) in experiment [6]; 29.2 µM (inactive) in experiment [7]; 33.3 µM (inactive) in [8]; 30.8 µM (inactive) in experiment [10]; 36.1 µM (inactive) in experiment [11]; 31 µM (inactive) in experiment [12]. Further, the GI50 is 19.8 µM (inactive) in experiment [13]; 18.9 µM (inactive) in [14]; 38 µM (inactive) in experiment [15]; 40 µM (inactive) in [16]; 39.6 µM (inactive) in experiment [17]; 28.3 µM (inactive) in experiment [18]. Further, in experiment [19], the GI50 is > 100 µM (inactive).

For the compound `CCOC(=O)/C=C/[C@@H](CC)O[Si](C(C)C)(C(C)C)C(C)C`, the GI50 in experiment [1], in experiment [2], in [3], in experiment [4], in experiment [20] and in experiment [5] was > 100 µM (inactive) throughout. Further, the GI50 in experiment [6] was > 100 µM (inactive); in experiment [7], > 100 µM (inactive); in experiment [8], > 100 µM (inactive); in experiment [9], > 100 µM (inactive); in [10] it was > 100 µM (inactive); in experiment [11], 90.2 µM (inactive). Also, the GI50 in [13] is > 100 µM (inactive); in experiment [14] it was > 100 µM (inactive); in [15] it was > 100 µM (inactive); in [16], > 100 µM (inactive); in [17], > 100 µM (inactive); in experiment [18], 50.6 µM (inactive). For the same compound, the GI50 in experiment [19] was > 100 µM (inactive).

Turning to `CC(C)NCCCNc1c2ccccc2nc2cccc([N+](=O)[O-])c12`, the GI50 in [1] is 0.00406 µM (active); in experiment [2] it was 0.00161 µM (active); in experiment [3] it was 0.00202 µM (active); in [4], 0.00156 µM (active); in experiment [20], 0.00211 µM (active); in experiment [5], 0.00445 µM (active). For the same compound, the GI50 in experiment [6] is 0.00851 µM (active); in experiment [7], 0.0484 µM (active); in [8], 0.00262 µM (active); in experiment [9], 0.0177 µM (active); in [10], 0.00438 µM (active); in experiment [11], < 0.001 µM (active). Further, the GI50 in experiment [12] is 0.00957 µM (active); in experiment [13] it was 0.0157 µM (active); in experiment [14], 0.0125 µM (active); in experiment [15] it was 0.0383 µM (active); in experiment [16], 0.00161 µM (active); in experiment [17], 0.00757 µM (active). The GI50 in experiment [18] was 0.00219 µM (active); in experiment [19] it was 0.0499 µM (active).

With `O=c1ccn(CC2(CO)CCCC2)c(=O)[nH]1`, the GI50 in experiment [1], in experiment [2], in experiment [3], in experiment [4], in experiment [20] and in experiment [5] was > 100 µM (inactive) throughout. The GI50 in experiment [6], in [7], in experiment [8], in [9], in experiment [10] and in [11] was > 100 µM (inactive) throughout. Moreover, the GI50 in experiment [12], in [13], in experiment [14], in [15], in [16] and in experiment [17] was > 100 µM (inactive) each time. Besides, the GI50 in experiment [18] is > 100 µM (inactive).

With `Cc1nc(N)c(N2CCN(S(=O)(=O)N(Cc3ccccc3)Cc3ccccc3)CC2)c(O)n1`, the GI50 in experiment [1] is 87.3 µM (inactive); in experiment [2] it was > 10 µM (inactive); in experiment [3] it was 26.8 µM (inactive); in [4], 21.9 µM (inactive); in experiment [20] it was > 100 µM (inactive); in experiment [5], 28.9 µM (inactive). Besides, the GI50 in experiment [6] was 15.3 µM (inactive); in [7], 23.2 µM (inactive); in [8], > 100 µM (inactive); in experiment [9] it was 58.6 µM (inactive); in [10] it was 22.2 µM (inactive); in experiment [11] it was 72.3 µM (inactive). Also, the GI50 in [12] is 32.7 µM (inactive); in experiment [13], 55.2 µM (inactive); in experiment [15] it was 33.3 µM (inactive); in [16] it was 23.3 µM (inactive); in experiment [17], 28.6 µM (inactive); in experiment [18], > 100 µM (inactive). Further, in experiment [19], the GI50 is 25 µM (inactive).

For `O=C1CNc2cc(N3CCN(c4cccc(C(F)(F)F)c4)CC3)ccc2N1`, the GI50 in [1] is 68.1 µM (inactive); in experiment [2] it was 13.9 µM (inactive); in experiment [3] it was 70.6 µM (inactive); in experiment [4], 39.9 µM (inactive); in experiment [20] it was 28.7 µM (inactive); in [5] it was > 100 µM (inactive). Further, the GI50 in experiment [6] is 32.3 µM (inactive); in experiment [7] it was 57.3 µM (inactive); in experiment [9], 91 µM (inactive); in [10], 21.4 µM (inactive); in experiment [11], 43.1 µM (inactive); in [12], > 100 µM (inactive). Moreover, the GI50 in [13] is 0.755 µM (active); in [14] it was 35.1 µM (inactive); in experiment [15], 42.1 µM (inactive); in [16], 27.5 µM (inactive); in [17] it was > 100 µM (inactive); in experiment [18] it was 31.7 µM (inactive). Besides, in experiment [19], the GI50 is > 100 µM (inactive).

Consider `CNc1nc2c(C)ccc3nc(N(C)C)nc-3c2n1C`, for which the GI50 in experiment [1], in [2], in experiment [3], in experiment [4], in experiment [20] and in experiment [5] was > 10 µM (inactive) each time. Further, the GI50 in [6], in [7], in experiment [8], in [9], in experiment [10] and in experiment [11] was > 10 µM (inactive) throughout. The GI50 in experiment [12] was 7.96 µM (inactive); in experiment [13] it was > 10 µM (inactive); in experiment [15], > 10 µM (inactive); in [16], > 10 µM (inactive); in [17], > 10 µM (inactive); in [18] it was > 10 µM (inactive). The GI50 in experiment [19] is > 10 µM (inactive).
